These results are taken from patent US10703764B2, “Benzopiperazine compositions as BET bromodomain inhibitors” (FORMA Therapeutics, Inc., priority 2013, dated 2020).

pIC50: −log10 of the molar value.

Test [1] deals with T1, BRD4 BD1 (Homo sapiens, UniProt O60885).
T1 construct: made in house
Briefly: AlphaScreen binding assay, BRD4 Bromodomain 1. Put shortly:
(§1)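 Compound dilution series were mixed with His-tagged BRD4 bromodomain and biotinylated tetra-acetylated H4 (1-21) peptide at pH 7.3 (BD1 and peptide at 50 nM, BD2 and peptide at 100 nM). Donor and acceptor beads were then added, and plates were equilibrated at least 1 h before reading. IC50 values were fitted with a four-parameter logistic model.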

Test [2] deals with MV4-11 cells. The experiment in a line: Oncology cell growth assay (3-day proliferation, CellTiter-Glo). It counts as cell-based. As to conditions: Homo sapiens, MV4-11, 72 h, AML cell line MV4-11, 72 hours, compounds grouped by IC50 range, read-out: MV4-11 IC50 (inhibition of proliferation, gIC50). Here is the method: The impact of Example compounds on cancer cell proliferation was determined using the acute myelocytic leukemia (AML) cell line MV4-11 (ATCC) in a 3-day proliferation assay. MV4-11 cells were maintained in RPMI 1640 media supplemented with 10% FBS at 37° C. and an atmosphere of 5% CO2. For compound testing, compound dilutions series were prepared in DMSO via a 3-fold serial dilution from 2 mM to 0.001 mM in 384-well white flat bottom plates. The final compound concentrations in the wells were 10, 3.3, 1.1, 0.37, 0.12, 0.041, 0.013 and 0.0045 μM. MV4-11 cells were plated at a density of 3000 cells/well in final volume of 50 μl culture media and incubated for 72 hours. […] Luminescent signal from the CellTiter-Glo assay was read on an EnVision multilabel plate reader (PerkinElmer). Values for the concentration that inhibited cell growth by 50% (gIC50) between the DMSO control and background control (no cells) were determined using IDBS Activity Base software with a four parameter logistic curve fit by the equation y=A+((B−A)/(1+((C/x)^D))), wherein A denotes the bottom plateau of the curve, B denotes the top plateau of the curve, C denotes the x value at the middle of the curve, D denotes the slope factor, x denotes the original known x values, and y denotes the original known y values. Data was fitted using the Levenburg Marquardt algorithm.
(In ATP-based viability assays light output follows the ATP content of the culture.)

Test [3] concerns the target T2, BRD4 BD2 (Homo sapiens, UniProt O60885).
T2 construct: made in house
The experiment in a line: AlphaScreen binding assay, BRD4 Bromodomain 2. Put shortly:
as §1

Turning to `CC(=O)N1c2ccc(-c3ccc(S(=O)(=O)CCN)cc3)cc2N(C(=O)OC(C)C)C[C@@H]1C` [Example I-477], the figures for the pIC50 in test [1], in test [2] and in test [3] were 6.00 to 7.00, 6.30 to 7.00 and > 7.30, respectively.

In the case of `CC(=O)N1c2ccc(-c3cccc(-n4nc(C)cc4C)c3)cc2N(C(=O)c2ccco2)C[C@@H]1C` [Example I-857], the results for the pIC50 in test [1], in test [2] and in test [3] were 6.00 to 7.00, < 6.30 and > 7.30, respectively.

`CC(=O)N1c2ccc(-c3ccc(C(=O)N4CCN(S(C)(=O)=O)CC4)cc3)cc2N(C(=O)OC(C)C)C[C@@H]1C` [Example I-549]: the pIC50 in test [1] was 6.00 to 7.00; in test [2] it was 6.30 to 7.00; in test [3], 6.30 to 7.30.

As for `CNC(=O)Nc1cc2c(cc1-c1cnn(C3CC3)c1)N(C(=O)OC(C)C)C[C@H](C)N2C(C)=O` [Example I-215, Isopropyl (S)-4-acetyl-7-(1-cyclopropyl-1H-pyrazol-4-yl)-3-methyl-6-(3-methylureido)-3,4-dihydroquinoxaline-1(2H)-carboxylate], the pIC50 in test [1] was 6.00 to 7.00; in test [2], 6.30 to 7.00; in test [3] it was 6.30 to 7.30.

Consider `CC(=O)N1c2ccc(-c3ccc4c(c3)N(S(C)(=O)=O)CCC4)cc2N(C(=O)OC(C)C)C[C@@H]1C` [Example I-1185], for which the pIC50 was 6.00 to 7.00 in test [1], 6.30 to 7.00 in test [2] and 6.30 to 7.30 in test [3].

For the compound `CC(=O)N1c2ccc(-c3cnn(C4CC4)c3)cc2N(C(=O)Oc2ccc(F)c(C)c2)C[C@@H]1C` [Example I-266], the pIC50 in test [1] was 6.00 to 7.00; in test [2], 6.30 to 7.00; in test [3], > 7.30.

In the case of `C[C@H]1CN(C(=O)C2CC2)c2cc(-c3cnn(C4CC4)c3)ccc2N1C(=O)C1CC1` [Example I-377], the figures for the pIC50 in test [1], in test [2] and in test [3] were 6.00 to 7.00, 6.30 to 7.00 and 6.30 to 7.30, respectively.

In the case of `CC(=O)N1c2ccc(-c3cnn(C4CC4)c3)cc2N(c2ncc3ccccc3n2)C[C@@H]1C` [Example I-51, (S)-1-(6-(1-cyclopropyl-1H-pyrazol-4-yl)-2-methyl-4-(quinazolin-2-yl)-3,4-dihydroquinoxalin-1(2H)-yl)ethanone], the pIC50 is 6.00 to 7.00 in test [1], 6.30 to 7.00 in test [2] and 6.30 to 7.30 in test [3].

In the case of `COC(=O)N1c2ccc(-c3cnn(C4CC4)c3)cc2N(C(=O)OC(C)C)C[C@@H]1C` [Example I-43, (S)-4-isopropyl 1-methyl 6-(1-cyclopropyl-1H-pyrazol-4-yl)-2-methyl-2,3-dihydroquinoxaline-1,4-dicarboxylate], the pIC50 in test [1] was 6.00 to 7.00; in test [2] it was < 6.30; in test [3], 6.30 to 7.30.

With `CC(=O)N1c2ccc(-c3cccc4c3OCO4)cc2N(C(=O)c2ccco2)C[C@@H]1C` [Example I-849], the pIC50 was 6.00 to 7.00 in test [1], < 6.30 in test [2] and 6.30 to 7.30 in test [3].

For `CCCS(=O)(=O)c1ccc(-c2ccc3c(c2)N(C(=O)C2CCC2)C[C@H](C)N3C(C)=O)cc1` [Example I-1071], the pIC50 in test [1] was 5.00 to 6.00; in test [2], 6.30 to 7.00; in test [3], 6.30 to 7.30.

On to `CC(=O)N1c2ccc(-c3ccc(NS(C)(=O)=O)cc3)cc2N(C(=O)C2CC2)C[C@@H]1C` [Example I-349], for which the pIC50 is 6.00 to 7.00 in test [1], 6.30 to 7.00 in test [2] and 6.30 to 7.30 in test [3].

`COc1cc(F)ccc1OC(=O)N1C[C@H](C)N(C(C)=O)c2ccc(-c3cnn(C4CC4)c3)cc21` [Example I-1186]: the results for the pIC50 in test [1], in test [2] and in test [3] were 6.00 to 7.00, 6.30 to 7.00 and > 7.30, respectively.

For the compound `CC(=O)N1c2ccc(-c3ccc(S(C)(=O)=O)cc3)cc2N(C(=O)c2ccco2)C[C@@H]1C` [Example I-817], the pIC50 is 5.00 to 6.00 in test [1], 6.30 to 7.00 in test [2] and > 7.30 in test [3].

For the compound `CNC(=O)c1ccc(-c2ccc3c(c2)N(C(=O)c2ccco2)C[C@H](C)N3C(C)=O)cc1` [Example I-824], the results for the pIC50 in test [1], in test [2] and in test [3] were 5.00 to 6.00, 6.30 to 7.00 and > 7.30, respectively.

For `CC(=O)N1c2ccc(-c3ccc(CS(N)(=O)=O)cc3)cc2N(C(=O)OC(C)C)C[C@@H]1C` [Example I-475], the pIC50 in test [1] was 6.00 to 7.00; in test [2], 6.30 to 7.00; in test [3] it was 6.30 to 7.30.

For `CC(C)OC(=O)N1C[C@H](C)N(C(=O)C2CC2)c2ccc(-c3cnn(C4COC4)c3)cc21` [Example I-317], the figures for the pIC50 in test [1], in test [2] and in test [3] were 6.00 to 7.00, 6.30 to 7.00 and 6.30 to 7.30, respectively.

Regarding `CC(=O)N1c2ccc(-c3cccc(S(C)(=O)=O)c3)cc2N(C(=O)C2CCC2)C[C@@H]1C` [Example I-1051], the results for the pIC50 in test [1], in test [2] and in test [3] were 5.00 to 6.00, < 6.30 and 6.30 to 7.30, respectively.

As to `CCS(=O)(=O)Nc1cccc(-c2ccc3c(c2)N(C(=O)OC(C)C)C[C@H](C)N3C(C)=O)c1` [Example I-1057], the pIC50 in test [1] was 6.00 to 7.00; in test [2], 6.30 to 7.00; in test [3], 6.30 to 7.30.

In the case of `COC(=O)N1c2ccc(-c3ccc(C(=O)N4CC[C@@H](N(C)C)C4)cc3)cc2N(C(=O)OC(C)C)C[C@@H]1C` [Example I-565], the pIC50 was 6.00 to 7.00 in test [1], 6.30 to 7.00 in test [2] and 6.30 to 7.30 in test [3].

`CCOC(=O)N1C[C@H](C)N(C(C)=O)c2ccc(-c3ccc(N4CCCS4(=O)=O)c(F)c3)cc21` [Example I-1155]: the pIC50 was 6.00 to 7.00 in test [1], < 6.30 in test [2] and 6.30 to 7.30 in test [3].

Take `CC(=O)N1c2ccc(-c3ccc(-c4ccccc4)cc3)cc2N(C(=O)c2ccco2)C[C@@H]1C` [Example I-798]: the pIC50 in test [1] was 5.00 to 6.00; in test [2], < 6.30; in test [3], 6.30 to 7.30.

Regarding `CCOC(=O)N1C[C@H](C)N(C(C)=O)c2ccc(-c3ccc(OCCS(C)(=O)=O)cc3)cc21` [Example I-1102], the pIC50 in test [1] is 6.00 to 7.00; in test [2] it was < 6.30; in test [3] it was 6.30 to 7.30.

For `CC(=O)N1c2ccc(-c3cccc(S(=O)(=O)N(C)C)c3)cc2N(C(=O)c2ccco2)C[C@@H]1C` [Example I-845], the figures for the pIC50 in test [1], in test [2] and in test [3] were 6.00 to 7.00, 6.30 to 7.00 and 6.30 to 7.30, respectively.

For the compound `CC(=O)N1c2ccc(-c3cnn(C4CC4)c3)cc2N(C(=O)Oc2cccc(C)c2)C[C@@H]1C` [Example I-517], the pIC50 was 6.00 to 7.00 in test [1], > 7.00 in test [2] and 6.30 to 7.30 in test [3].

`CC(=O)N1c2ccc(-c3ccc(S(C)(=O)=O)c(F)c3)cc2N(C(=O)C2CC2)C[C@@H]1C` [Example I-1082]: the figures for the pIC50 in test [1], in test [2] and in test [3] were 5.00 to 6.00, < 6.30 and 6.30 to 7.30, respectively.

Turning to `CNS(=O)(=O)c1cccc(-c2ccc3c(c2)N(C(=O)OC2CCOCC2)C[C@H](C)N3C(C)=O)c1` [Example I-1254], the pIC50 is 6.00 to 7.00 in test [1], > 7.00 in test [2] and 6.30 to 7.30 in test [3].

`CC(=O)N1c2ccc(-c3cnn(CC(C)(C)O)c3)cc2N(C(=O)OC(C)C)C[C@@H]1C` [Example I-327]: the pIC50 in test [1] was 6.00 to 7.00; in test [2], 6.30 to 7.00; in test [3], 6.30 to 7.30.

Consider `CC(=O)N1c2ccc(-c3ccc(C(=O)N(C)C)cc3)cc2N(C(=O)c2ccco2)C[C@@H]1C` [Example I-809], for which the pIC50 is 6.00 to 7.00 in test [1], 6.30 to 7.00 in test [2] and > 7.30 in test [3].
